From ChEMBL document CHEMBL1150971, “Crystal structures of catalytic subunit of cAMP-dependent protein kinase in complex with isoquinolinesulfonyl protein kinase inhibitors H7, H8, and H89. Structural implications for selectivity” (J Biol Chem, 1996)
pKi: −log10 of the molar value.

Columns and labels:
[1] = molecular target: Myosin light chain kinase, smooth muscle (Gallus gallus, UniProt P11799); experiment: Inhibitory constant against MLCK
Casein kinase II = Casein kinase II (Homo sapiens, UniProt P19784+P67870+P68400); experiment: Inhibitory constant against CK2; assay type: protein-complex assay, Oryctolagus cuniculus
Casein kinase II, sequence (P67870 whole entry): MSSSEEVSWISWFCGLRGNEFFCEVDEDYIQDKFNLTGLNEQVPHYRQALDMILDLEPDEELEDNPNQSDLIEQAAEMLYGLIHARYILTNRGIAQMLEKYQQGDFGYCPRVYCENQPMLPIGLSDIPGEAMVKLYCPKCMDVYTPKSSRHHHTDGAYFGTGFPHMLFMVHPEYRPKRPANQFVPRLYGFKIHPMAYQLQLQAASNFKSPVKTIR
Casein kinase II, sequence (P68400 whole entry): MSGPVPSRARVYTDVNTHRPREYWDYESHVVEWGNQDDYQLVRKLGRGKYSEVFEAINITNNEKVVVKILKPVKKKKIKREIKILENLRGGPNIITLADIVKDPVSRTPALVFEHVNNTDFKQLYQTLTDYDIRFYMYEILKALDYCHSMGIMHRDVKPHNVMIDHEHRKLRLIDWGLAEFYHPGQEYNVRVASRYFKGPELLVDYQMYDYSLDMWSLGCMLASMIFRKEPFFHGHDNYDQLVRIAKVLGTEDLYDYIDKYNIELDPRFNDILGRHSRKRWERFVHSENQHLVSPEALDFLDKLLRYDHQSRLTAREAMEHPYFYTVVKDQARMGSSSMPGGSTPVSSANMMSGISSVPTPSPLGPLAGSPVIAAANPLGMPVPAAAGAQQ
Casein kinase II, sequence (P19784 whole entry): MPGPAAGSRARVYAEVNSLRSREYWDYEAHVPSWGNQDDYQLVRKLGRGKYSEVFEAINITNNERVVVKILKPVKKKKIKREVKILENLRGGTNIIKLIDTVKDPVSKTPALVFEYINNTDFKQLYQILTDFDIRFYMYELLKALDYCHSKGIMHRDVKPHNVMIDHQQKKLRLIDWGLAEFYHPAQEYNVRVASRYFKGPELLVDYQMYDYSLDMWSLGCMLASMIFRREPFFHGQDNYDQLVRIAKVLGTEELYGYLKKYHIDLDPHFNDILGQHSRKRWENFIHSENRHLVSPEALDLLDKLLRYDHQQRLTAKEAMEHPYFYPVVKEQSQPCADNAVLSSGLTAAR

[2] = Inhibitory constant against CK1; set-up: species or system Rattus norvegicus
[3] = Inhibitory constant against cGPK (PKG); set-up: species or system Sus scrofa
Protein kinase C (PKC) = experiment: Inhibitory constant against PKC; assay type: protein assay, Oryctolagus cuniculus
[4] = molecular target: cAMP-dependent protein kinase alpha-catalytic subunit (Oryctolagus cuniculus, UniProt Q95J97); experiment: Inhibitory constant against cAPK (PKA)

Myosin light chain kinase, smooth muscle, sequence (P11799 whole entry): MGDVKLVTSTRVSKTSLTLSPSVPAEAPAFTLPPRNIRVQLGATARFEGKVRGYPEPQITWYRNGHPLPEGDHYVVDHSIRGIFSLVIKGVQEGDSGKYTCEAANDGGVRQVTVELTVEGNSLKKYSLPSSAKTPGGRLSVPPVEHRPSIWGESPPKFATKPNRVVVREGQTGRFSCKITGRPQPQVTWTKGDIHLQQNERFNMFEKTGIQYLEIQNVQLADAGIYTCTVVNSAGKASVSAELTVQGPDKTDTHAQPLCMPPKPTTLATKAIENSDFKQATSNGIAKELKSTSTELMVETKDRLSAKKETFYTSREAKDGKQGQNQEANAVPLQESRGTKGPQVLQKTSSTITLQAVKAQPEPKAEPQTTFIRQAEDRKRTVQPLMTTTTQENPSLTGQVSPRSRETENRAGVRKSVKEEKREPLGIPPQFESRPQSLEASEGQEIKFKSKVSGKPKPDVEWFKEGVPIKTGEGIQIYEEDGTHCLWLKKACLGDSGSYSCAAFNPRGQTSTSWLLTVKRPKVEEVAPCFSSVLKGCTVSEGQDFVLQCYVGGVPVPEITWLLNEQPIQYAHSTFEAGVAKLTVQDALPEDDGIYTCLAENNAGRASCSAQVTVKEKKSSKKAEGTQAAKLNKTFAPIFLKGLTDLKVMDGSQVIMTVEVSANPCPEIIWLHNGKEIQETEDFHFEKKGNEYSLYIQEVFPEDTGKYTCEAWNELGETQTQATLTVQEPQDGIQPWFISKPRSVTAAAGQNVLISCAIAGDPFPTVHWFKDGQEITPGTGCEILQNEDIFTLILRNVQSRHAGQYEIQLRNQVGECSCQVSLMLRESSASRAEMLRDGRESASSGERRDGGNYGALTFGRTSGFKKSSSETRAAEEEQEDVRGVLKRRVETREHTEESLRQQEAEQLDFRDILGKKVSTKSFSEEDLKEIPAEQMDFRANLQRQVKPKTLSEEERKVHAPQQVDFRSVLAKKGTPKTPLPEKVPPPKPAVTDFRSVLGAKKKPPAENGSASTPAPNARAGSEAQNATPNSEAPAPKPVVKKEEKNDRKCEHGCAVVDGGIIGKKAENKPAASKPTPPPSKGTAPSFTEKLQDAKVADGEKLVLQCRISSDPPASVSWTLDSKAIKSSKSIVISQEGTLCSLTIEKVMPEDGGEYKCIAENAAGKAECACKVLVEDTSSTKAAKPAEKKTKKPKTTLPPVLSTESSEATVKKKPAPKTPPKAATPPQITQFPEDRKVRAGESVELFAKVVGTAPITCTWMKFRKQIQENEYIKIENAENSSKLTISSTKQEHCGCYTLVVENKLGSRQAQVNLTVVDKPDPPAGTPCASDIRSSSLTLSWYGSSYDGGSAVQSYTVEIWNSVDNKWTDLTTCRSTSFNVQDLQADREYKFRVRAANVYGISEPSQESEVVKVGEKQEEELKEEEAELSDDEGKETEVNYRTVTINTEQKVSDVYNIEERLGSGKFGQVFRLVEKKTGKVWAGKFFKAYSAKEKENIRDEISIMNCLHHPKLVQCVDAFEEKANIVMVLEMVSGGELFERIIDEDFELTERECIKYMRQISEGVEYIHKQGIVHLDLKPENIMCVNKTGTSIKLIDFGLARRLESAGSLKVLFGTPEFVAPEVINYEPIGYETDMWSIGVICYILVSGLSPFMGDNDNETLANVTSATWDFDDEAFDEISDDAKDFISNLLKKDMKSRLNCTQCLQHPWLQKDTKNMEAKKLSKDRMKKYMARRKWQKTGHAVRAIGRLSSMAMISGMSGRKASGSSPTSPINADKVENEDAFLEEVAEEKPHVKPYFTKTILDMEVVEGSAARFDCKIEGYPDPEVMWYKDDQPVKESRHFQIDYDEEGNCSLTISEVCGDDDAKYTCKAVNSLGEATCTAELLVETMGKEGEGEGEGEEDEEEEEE

| pKi [1] | SMILES | pKi (Casein kinase II) | pKi [2] | pKi [3] | Ki (Protein kinase C (PKC)) [µM] | pKi [4] |
| --- | --- | --- | --- | --- | --- | --- |
| 4.55 | O=S(=O)(NCCNC/C=C/c1ccc(Br)cc1)c1cccc2cnccc12 | – | – | – | – | – |
| 4.01 | C[C@H]1CNCCN1S(=O)(=O)c1cccc2cnccc12 | 3.11 | 4.00 | 5.24 | 6 | – |

| SMILES | pKi [1] | pKi (Casein kinase II) | pKi [2] | pKi [3] | Ki (Protein kinase C (PKC)) [µM] | pKi [4] |
| --- | --- | --- | --- | --- | --- | --- |
| CNCCNS(=O)(=O)c1cccc2cnccc12 | 4.17 | 3.02 | 3.88 | 6.32 | 15 | 5.92 |
